Experimental data from patent publication US10624876B2, “Derivatives of indole for the treatment of endometriosis” (BIOKINESIS, priority 2016, dated 2020).

Test system: endometriosis lesions
Experiment: Ex vivo clinical evaluation of endometriosis lesions (intraperitoneal uterine horn implants) in syngenic mice
Settings: estradiol at D-1, implants at D0, nanosuspension (50 mg/mL) i.v. 100 mg/kg/BW every 2 days from D7 to D21, sacrificed at D23, versus control group (Vehicle)
Method: FIG. 2: Ex vivo clinical evaluation (implant volume (mm^3) and weight (g)) in syngenic mice.
Example 1: Echographic and Ex Vivo Evaluation of Endometriosis Lesions in Syngenic Mice Treated with Compound 38
More particularly, 20 syngenic mices were engraved estradiol at D-1. Intraperitoneal Uterine Horsn implant have been implanted in each mouse at DO. A nanosuspension of compound 38 (50 mg/mL) has been intravenously administered in 10 mice (treated group) at a 100 mg/kg/BW dose from D7 to D21 every 2 days.
Mices have been sacrified at D23 and implants have been removed for ex vivo clinical evaluation.

COc1ccc(C#N)cc1/C=C(\C#N)c1c[nH]c2ccc(Br)cc12 [Compound 38, (Z)-3-(2-(5-bromo-1H-indol-3-yl)-2-cyanovinyl)-4-methoxybenzonitrile]
implant volume: lower than those of the control group | implant weight: lower than those of the control group
